These results are taken from patent publication US11174216B2, “Lipids that increase insulin sensitivity and methods of using the same” (Beth Israel Deaconess Medical Center, Inc., priority 2012, dated 2021).

For assay [1], the system named is STC-1 cells. In words: GLP-1 secretion in STC-1 enteroendocrine cells (ELISA). Format: cell-based. Here is the method: For the experiments summarized in FIG. 51 STC-1 cells were incubated with vehicle (DMSO), 9-PAHSA, 5-PAHSA or 9-OAHSA at the indicated concentrations or lineolic acid (100 uM) as a positive control. Media was harvested and GLP-1 was measured by ELISA.
For the experiments summarized in FIG. 52, the same protocol as described for FIG. 51 was used, except in this experiment a time course was performed. For both FIG. 51 and FIG. 52, for GLP-1 secretion STC1 cells were washed 3× with serum free culture media followed by stimulation with FAHFAs or vehicle at the indicated concentrations and timepoints. Levels of active GLP-1 were measured by ELISA.
Background: ELISA stands for enzyme-linked immunosorbent assay.

In a further assay the target is T1, GPR120 (Homo sapiens, UniProt Q5NUL3).
T1 sequence (Q5NUL3 1-361): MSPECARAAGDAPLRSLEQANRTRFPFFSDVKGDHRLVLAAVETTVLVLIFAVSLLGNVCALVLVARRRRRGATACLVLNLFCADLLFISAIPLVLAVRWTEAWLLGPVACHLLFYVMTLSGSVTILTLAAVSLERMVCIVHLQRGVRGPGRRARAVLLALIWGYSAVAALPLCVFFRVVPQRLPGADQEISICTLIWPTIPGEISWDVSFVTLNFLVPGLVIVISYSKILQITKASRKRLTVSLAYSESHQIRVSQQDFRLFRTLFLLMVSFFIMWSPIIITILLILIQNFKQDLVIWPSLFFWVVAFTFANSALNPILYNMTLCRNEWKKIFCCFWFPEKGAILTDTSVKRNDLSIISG
Briefly: PATHHUNTER beta-Arrestin GPCR assay. Format: cell-based. An excerpt:
For the experiments summarized in FIGS. 53-55, the fragment based GPCR assay from DiscoveRx (PATHHUNTER® β-Arrestin assay) was used to as per manufacturer's instructions to determine activation of specific GPCRs as indicated in FIGS. 53-55.

Assay [2] deals with STC-1 cells. In words: ERK phosphorylation in STC-1 cells (immunoblot). The settings on record: 15 minutes. Format: cell-based. Here is the method:
For the experiments summarized in FIG. 50, STC-1 cells were incubated with 9-PAHSA, 5-PAHSA or 9-OAHSA at the indicated concentrations. Cells were harvested and lysed and proteins were separated by SDS PAGE and transferred onto nitrocellulose filters. The phosphorylation of ERK and the amount of total ERK was determined by immunoblotting with antibodies specific for total or phosphor-ERK. DMSO was the control. For ERK phosphorylation, cells were serum deprived overnight and stimulated with FAHFAs or vehicle as indicated for 15 minutes followed by lysis in RIPA buffer and analysis by SDS-PAGE

The test system of assay [3] is FA-CoA:HFA acyltransferase activity. In words: FAHFA biosynthesis (FA-CoA:HFA acyltransferase) assay in tissue lysates. Format: biochemical. As to conditions: 10 uM 9-HSA and oleoyl-CoA, increasing doses. Here is the method: In order to understand the biology of the new FAHFA lipid class more completely, experiments were performed to identify an enzyme capable of synthesizing FAHFAs as well. By structural analogy to other lipid metabolites such as diacylglycerols or wax esters, it was hypothesized that hydroxy fatty acids were the immediate precursors to FAHFAs. Candidate acyltransferases were identified by reacting the common biochemical acyl carrier, oleoyl-CoA, with 9-hydroxystearic acid (9-HSA) in the presence of cell lysates or tissue membrane lysates to form 9-OAHSA (Scheme 2; FIG. 61 ).
After first establishing that FA-CoA:HFA acyltransferase activity was membrane-localized in liver (not shown), we isolated membrane fractions from liver or WAT tissue lysate by ultracentrifugation, then resuspended the pellets in PBS buffer and diluted to 1 mg/ml protein concentration. […] The reaction mixtures were extracted with ethyl acetate, concentrated, and reconstituted in 1:1 chloroform:methanol for MS analysis. Formation of 9-OAHSA was measured by MS/MS, with which the appearance of the parent ion m/z 563 was monitored.
In light of the above results acyltransferase families that have been reported to have a membrane-bound localization and to have the ability to conjugate FA-CoA to a hydrophobic alcohol were targeted. […]

The test system of the next assay is HepG2 cells. Briefly: PPAR agonist studies, FAHFA levels in HepG2 cells. Type of assay: cell-based. As to conditions: 0.5 uM and 1.0 uM, 48 hr, cells and media. Here is the method: In this example, HepG2 cells were seeded in 6-well plates. At 80% confluence, cells were treated with two different concentrations [0.5 uM and 1.0 uM] of an agonist of PPAR α (WY14643), δ (CAY10592), or γ (Pioglitazone) for 48 hr in HepG2 media with 2.5% FBS. At the end of incubation, 500 uL of media was collected and the cells were collected in PBS for lipid extraction. Lipids were extracted from both media and cells to quantitate the FAHFA levels by Mass Spec. The results are summarized in FIGS. 33 and 34 for the cells and media, respectively.
HepG2 cells were seeded in 6-well plate. At 80% confluence, cells were treated with two different concentrations [0.5 μM and 1.0 μM] of PPAR α/δ/γ agonists for 48 h in HepG2 media containing 2.5% fetal bovine serum (PPAR α agonist—WY14643; PPAR δ agonist—CAY10592; PPAR γ agonist—Pioglitazone). At the end of incubation, 500 μL of media and the cells were collected in PBS. Lipids were extracted as per Folch Method from both media and cells to quantitate the FAHFA levels by Mass Spec. Briefly, chloroform and methanol were added to the media or cells in 2:1 ratio and sonicated for 2-3 min and centrifuged at 3000 rpm for 10 min at 4° C. […] Calculated volume of chloroform is added to the dissolve the lipids and 2 μL of injection volume was used to analyze FAHFAs through Mass spec. […]

The test system of assay [4] is carboxyl ester lipase (CEL).
The subject of assay [5] is FAHFA hydrolysis activity in liver lysate.
The test system of assay [6] is FAHFA hydrolysis activity in pancreas membrane lysate. Briefly: FAHFA hydrolysis activity assay, pancreas membrane lysate. As to conditions: pancreas lysate.

As for `CCCCCCCC/C=C\CCCCCCCC(=O)OC(CCCCCCCCC)CCCCCCCC(=O)O` (stereo not shown) [9-OAHSA], the GLP-1 secretion entry in the assay on STC-1 cells [1] is on record as “induce GLP-1 secretion”. In addition, the “activation of GPR120” value at GPR120 was “but not 9OAHSA, activate GPR120”. Besides, the ERK phosphorylation entry in the assay on STC-1 cells [2] is reported as “induce ERK phosphorylation”.
Consider `O=C(Nc1ccccc1)Nc1ccc(-c2ccc(C(=O)[C@@H]3CCC[C@H]3C(=O)O)cc2)cc1` [A922500], for which the “9-OAHSA levels (FAHFA production)” value in assay [3] is given as “no change”.
On to `O=C(O)COc1ccc(SCC=C(c2ccc(Br)cc2)c2ccc(Br)cc2)cc1Cl` [CAY10592], for which, in the assay on HepG2 cells, the “FAHFA production in liver cells” value is given as “stimulate FAHFA production”.
With `CCCCCCCCCCC(C)(C)C(=O)Nc1c(OC)cc(OC)cc1OC` [CI976], the “9-OAHSA levels (FAHFA production)” value in assay [3] was “no change”.
`C[C@H](CCC(=O)NCCS(=O)(=O)O)[C@H]1CC[C@H]2[C@@H]3[C@H](O)C[C@@H]4C[C@H](O)CC[C@]4(C)[C@H]3C[C@H](O)[C@]12C` [NaTC, sodium taurocholate, reference compound]: the “effect on FAHFA hydrolysis” value in assay [4] was “enhanced”; in assay [5], “not enhanced”; in assay [6], “markedly increased”.
Consider `Cc1cccc(Nc2cc(Cl)nc(SCC(=O)O)n2)c1C` [WY14643], for which, in the assay with HepG2 cells, the “FAHFA production in liver cells” value is reported as “stimulate FAHFA production”.
